Laboratory results reported in ChEMBL document CHEMBL4665747, “Glycosides and Glycoconjugates of the Diterpenoid Isosteviol with a 1,2,3-Triazolyl Moiety: Synthesis and Cytotoxicity Evaluation” (J Nat Prod, 2020).
Activity calls are given as the source filed them. The rule behind the calls is not given here.

Assays:
[1] = Cytotoxicity against human Chang liver cells assessed as reduction in cell viability after 24 hrs by DAPI staining-based fluorescence assay
[2] = tested on: M-HeLa; experiment: Induction of apoptosis in human HelaM cells assessed as necrotic cells at 25 uM after 24 hrs by V-FITC/propidium iodide staining-based flow cytometric analysis (reference value: 4.55 %); type: functional
[3] = tested on: M-HeLa; experiment: Induction of mitochondrial membrane potential loss in human HelaM cells assessed as cell population with mitochondrial membrane potential collapse at 10 uM by JC-10 staining-based flow cytometric analysis (reference value: 22.17 %); type: functional
[4] = tested on: M-HeLa; experiment: Induction of apoptosis in human HelaM cells assessed as late apoptotic cells at 10 uM after 24 hrs by V-FITC/propidium iodide staining-based flow cytometric analysis (reference value: 0.62 %); type: functional
[5] = tested on: M-HeLa; experiment: Induction of apoptosis in human HelaM cells assessed as early apoptotic cells at 25 uM after 24 hrs by V-FITC/propidium iodide staining-based flow cytometric analysis (reference value: 1.5 %); type: functional
[6] = tested on: M-HeLa; experiment: Induction of apoptosis in human HelaM cells assessed as viable cells at 25 uM after 24 hrs by V-FITC/propidium iodide staining-based flow cytometric analysis (reference value: 93.33 %); type: functional; details: read-out: Activity
[7] = tested on: M-HeLa; experiment: Induction of apoptosis in human HelaM cells assessed as late apoptotic cells at 25 uM after 24 hrs by V-FITC/propidium iodide staining-based flow cytometric analysis (reference value: 0.62 %); type: functional
[8] = tested on: WI-38; experiment: Cytotoxicity against human WI-38 cells assessed as reduction in cell viability after 24 hrs by DAPI staining-based fluorescence assay; details: WI-38, 24 h
[9] = Selectivity index, ratio of IC50 for human chang liver cells to IC50 for human HelaM cells
[10] = tested on: M-HeLa; experiment: Induction of mitochondrial membrane potential loss in human HelaM cells assessed as cell population with intact mitochondrial membrane potential at 25 uM by JC-10 staining-based flow cytometric analysis (reference value: 77.48 %); type: functional
[11] = tested on: M-HeLa; experiment: Cytotoxicity against human HelaM cells assessed as reduction in cell viability after 24 hrs by DAPI staining-based fluorescence assay; type: functional
[12] = tested on: M-HeLa; experiment: Induction of apoptosis in human HelaM cells assessed as viable cells at 10 uM after 24 hrs by V-FITC/propidium iodide staining-based flow cytometric analysis (reference value: 93.33 %); type: functional; details: read-out: Activity
[13] = tested on: MCF7; experiment: Cytotoxicity against human MCF7 cells assessed as reduction in cell viability after 24 hrs by DAPI staining-based fluorescence assay; type: functional; details: MCF7, 24 h
[14] = tested on: M-HeLa; experiment: Induction of mitochondrial membrane potential loss in human HelaM cells assessed as cell population with mitochondrial membrane potential collapse at 25 uM by JC-10 staining-based flow cytometric analysis (reference value: 22.17 %); type: functional
[15] = tested on: M-HeLa; experiment: Induction of apoptosis in human HelaM cells assessed as necrotic cells at 10 uM after 24 hrs by V-FITC/propidium iodide staining-based flow cytometric analysis (reference value: 4.55 %); type: functional
[16] = tested on: M-HeLa; experiment: Induction of apoptosis in human HelaM cells assessed as early apoptotic cells at 10 uM after 24 hrs by V-FITC/propidium iodide staining-based flow cytometric analysis (reference value: 1.5 %); type: functional
[17] = tested on: M-HeLa; experiment: Induction of mitochondrial membrane potential loss in human HelaM cells assessed as cell population with intact mitochondrial membrane potential at 10 uM by JC-10 staining-based flow cytometric analysis (reference value: 77.48 %); type: functional
[18] = tested on: M-HeLa; experiment: Induction of apoptosis in human HelaM cells assessed as increase in Akt level at 10 uM incubated for 24 hrs; type: functional, cell-based
[19] = tested on: M-HeLa; experiment: Induction of apoptosis in human HelaM cells assessed as increase in caspase-9 level at 10 uM incubated for 24 hrs; type: functional, cell-based
[20] = tested on: M-HeLa; experiment: Induction of apoptosis in human HelaM cells assessed as increase in Bad level at 10 uM incubated for 24 hrs; type: functional, cell-based
[21] = tested on: M-HeLa; experiment: Induction of apoptosis in human HelaM cells assessed as increase in JNK level at 10 uM incubated for 24 hrs; type: functional, cell-based
[22] = tested on: M-HeLa; experiment: Induction of apoptosis in human HelaM cells assessed as increase in p53 level at 10 uM incubated for 24 hrs; type: functional, cell-based
[23] = tested on: M-HeLa; experiment: Induction of apoptosis in human HelaM cells assessed as increase in Bcl2 level at 10 uM incubated for 24 hrs; type: functional, cell-based
[24] = tested on: M-HeLa; experiment: Induction of apoptosis in human HelaM cells assessed as increase in caspase-8 level at 10 uM incubated for 24 hrs; type: functional, cell-based

For `COc1cccc2c1C(=O)c1c(O)c3c(c(O)c1C2=O)C[C@@](O)(C(=O)CO)C[C@@H]3O[C@H]1C[C@H](N)[C@H](O)[C@H](C)O1` [DOXORUBICIN], the IC50 [1] was 3 µM.

In the case of `CC(=O)O[C@@H]1[C@H](OC(C)=O)[C@H](OC(C)=O)CO[C@H]1n1cc(COC(=O)[C@]2(C)CCC[C@@]3(C)[C@@H]4CC[C@@]5(C)C[C@]4(CC[C@@H]32)CC5=O)nn1`, the Activity [2] is reported as 0.66%, the Activity [3] is reported as 40.23% and the Activity [4] is reported as 8.21%. The Activity [5] was 8.57%, the viability at 25 µM [6] was 79.2% and the Activity [7] was 11.59%. For the same compound, the IC50 [1] was > 100 µM, the IC50 [8] was 40 µM and the “Ratio IC50” value [9] was >59. The Activity [10] was 13.46%, the IC50 [11] was 1.7 µM and the viability at 10 µM [12] was 81.9%. The IC50 [13] was > 10 µM, the Activity [14] was 86.44% and the Activity [15] was 0.34%. The Activity [16] was 9.53% and the Activity [17] was 59.62%.

Work on `CC(=O)OC[C@H]1O[C@@H](n2cc(COC(=O)[C@]3(C)CCC[C@@]4(C)[C@@H]5CC[C@@]6(C)C[C@]5(CC[C@@H]43)CC6=O)nn2)[C@H](OC(C)=O)[C@@H]1OC(C)=O` yielded an Activity [2] of 0%, an Activity [3] of 44.73% and an Activity [4] of 20.94%. The Activity [5] was 22.44%, the viability at 25 µM [6] was 53.9% and the Activity [7] was 23.66%. The IC50 [1] was > 100 µM, the IC50 [8] was > 100 µM and the “Ratio IC50” value [9] was >53. For the same compound, the Activity [10] was 9.86%, the IC50 [11] was 1.9 µM and the viability at 10 µM [12] was 67.3%. For the same compound, the IC50 [13] was > 10 µM, the Activity [14] was 90.09% and the Activity [15] was 0.03%. It also gave an Activity [16] of 11.71% and an Activity [17] of 55.17%.

In the case of `CC(=O)OC[C@H]1O[C@@H](n2cc(COC(=O)[C@]3(C)CCC[C@@]4(C)[C@@H]5CC[C@@]6(C)C[C@]5(CC[C@@H]43)CC6=O)nn2)[C@H](OC(C)=O)[C@@H](OC(C)=O)[C@@H]1OC(C)=O`, the IC50 [1] is reported as 68.3 µM, the IC50 [8] is reported as 36 µM and the “Ratio IC50” value [9] is reported as 8.5. The IC50 [11] was 8 µM and the IC50 [13] was > 10 µM.

For `CC(=O)OC[C@H]1O[C@@H](n2cc(COC(=O)[C@]3(C)CCC[C@@]4(C)[C@@H]5CC[C@@]6(C)C[C@]5(CC[C@@H]43)CC6=O)nn2)[C@H](OC(C)=O)[C@@H](OC(C)=O)[C@H]1OC(C)=O`, the Activity [18] was “Active”, the Activity [2] was 1.26% and the Activity [19] was “Active”. The Activity [3] was 40.74%, the Activity [4] was 9.09% and the Activity [5] was 9.53%. For the same compound, the Activity [20] was “Active”, the viability at 25 µM [6] was 77.7% and the Activity [21] was “Active”. For the same compound, the Activity [7] was 11.5%, the Activity [22] was “Active” and the IC50 [1] was > 100 µM. The IC50 [8] was 69.7 µM, the “Ratio IC50” value [9] was >56 and the Activity [10] was 15.35%. For the same compound, the IC50 [11] was 1.8 µM, the viability at 10 µM [12] was 82% and the IC50 [13] was > 10 µM. The Activity [14] was 84.65%, the Activity [15] was 0.91% and the Activity [16] was 7.95%. The Activity [17] was 59.16%, the Activity [23] was “Active” and the Activity [24] was “Active”.
